From patent publication US5091191A (Yoshitomi Pharmaceutical Industries, Ltd., priority 1988, dated 1992)

Experiments:
[1] = Solubility of the Compound at different pH values (FIG. 1); type: physicochemical; settings: weakly acid to neutral, about pH 3 to about pH 7
Text: FIG. 1 is a graph showing the solubility of the Compound at different ph valves. FIGS. 2, 3 and 4 are the graphs showing the dissolution test results of the Compound and the tablets of Reference Example 1, the fine granules of Example 1 and the tablets of Example 2, respectively.

[2] = Behaviour of finely-powdered Compound in weakly acid solution; type: physicochemical

Structure (SMILES): Cc1ccc(-n2ccnc2)cc1C(O)c1c(C)cc(C(=O)[O-])cc1C.[Na+] (stereo not drawn)
- solubility [1]: lowered under weakly acid to neutral conditions
- conversion to corresponding free acid ([2]; added to a weakly acid solution): the corresponding free acid was produced through chemical reaction
- dissolution-improving effect of finely-powdering ([2]; weakly acid solution): there was not found any dissolution-improving effect
